The test system of assay [1] is spontaneously hypertensive rat (SHR). Put plainly: Anti-hypertensive activity, unanesthetized spontaneously hypertensive rat (SHR) assay, mean arterial blood pressure. In kind it is in vivo. The method, then:
Male, unanesthetized spontaneously hypertensive rats, 11 to 16 weeks old were used in this test procedure. The compounds to be tested are administered intragastrically at a dose of 50 mg/kg or intraarterially/intraveneously at a dose of 10 mg/kg. or such other doses determined to be suitable for a specific test compound.
Initial mean arterial blood pressure was measured directly via a previously implanted arterial catheter immediately before administration of the test compound. Blood pressure readings were made at 1, 2, 3, and 4 hours following administration of the test compound. […] Statistical comparisons were made using the paired Student's T test with two sided probability calculations.

The test system of assay [2] is vascular smooth muscle (isolated thoracic aorta segments). Put plainly: Calcium antagonism in vascular smooth muscle, isolated thoracic aorta segments from male spontaneously hypertensive rat (pA2). In kind it is cell-based. To be noted: for pA2 (Ca++ antagonism): test compound 1×10^-6 M, one hour incubation, K+ (100 mM) depolarized, considered active if pA2 is 6.0 or greater; for active in the foregoing test (vascular calcium antagonism): reference drugs. The method, then: Isolated thoracic aorta segments from the male spontaneously hypertensive rat were utilized in this test procedure.
The excised aorta segment was mounted in a tissue bath containing modified Krebs solution. After depolarization of the tissue with potassium (100 mM), calcium, in cumulative concentrations of 1×10^-3 M, 3.2×10^-3 M, and 1×10^-2 M was injected into the bath to produce vascular smooth muscle contraction. The developed tension (in grams) is measured and control dose-response values obtained. After one hour of incubation with a test compound at 1×10^-6 M concentration, the same doses of calcium ions were repeated. The log dose-response curves of the control and after treatment were analyzed by linear regression. The pA2 value was calculated as a measure of calcium antagonism of the test compound. See Van Rossum, J. M., Arch. Int. Pharmacodyn, 143, 299-330, 1963.
Calcium ions play an essential role in induction and maintenance of vascular smooth muscle contractility. In potassium depolarized vascular smooth muscle, calcium antagonists may block the entry of calcium ions into the cell or act by other mechanisms to inhibit the contractions induced by calcium ions. The inhibition of calcium ion-induced contraction of vascular smooth muscle is used to test compounds for vascular calcium antagonism. Cardiovascular diseases such as arrythmias, angina-pectoris, hypertension, and peripheral vascular disease may be causally related to abnormalities in cellular handling of calcium ions.

[3] abbreviates: reference drugs, dose not given.

In the case of `C[C@](N)(Cc1ccc(O)c(O)c1)C(=O)O` [Aldomet, reference compound], the “active in the foregoing hypertensive rat assay” value in assay [1] (setting [3]) is reported as “active”.
For the molecule `NNc1nncc2ccccc12` [Apresoline, reference compound], the “active in the foregoing hypertensive rat assay” value in assay [1] (rat, in vivo) was “active”.
As to `C[C@H](CS)C(=O)N1CCC[C@H]1C(=O)O` [Captopril, reference compound], in assay [1] (setting [3]), the “active in the foregoing hypertensive rat assay” value is listed as “active”.
`Clc1cccc(Cl)c1N=C1NCCN1` [Clonidine, reference compound]: the “active in the foregoing hypertensive rat assay” value in assay [1] (rat, in vivo) is “active”.
As for `CN(C)c1ccc(CN2CCC(C(c3ccc(F)cc3)c3ccc(F)cc3)CC2)c(C(=O)NC(C)(C)C)c1` [Example 3, 2-[[4-[bis(4-fluorophenyl)methyl]-1-piperidinyl]methyl]-5-(dimethylamino)-N-(1,1-dimethylethyl)benzamide], in assay [2], the “pA2 (Ca++ antagonism)” value was “inactive”. Besides, the “SHR -mm Hg (dose), blood pressure change” value in assay [1] (50 mpk-oral) is listed as -54 mm Hg.
Consider `COC(=O)c1cc(N(C)C)ccc1CN1CCC(C(c2ccc(F)cc2)c2ccc(F)cc2)CC1` [Example 4, methyl 2-[[4-[bis(4-fluorophenyl)methyl]-1-piperidinyl]methyl]-5-(dimethylamino)benzoate], for which the “pA2 (Ca++ antagonism)” value in assay [2] (60 min, 1 µM) is listed as 7.78. Moreover, the “SHR -mm Hg (dose), blood pressure change” value in assay [1] (50 mpk-oral) was -67 mm Hg.
As for `CNC(=O)c1cc(N(C)C)ccc1CN1CCC(C(c2ccccc2)c2ccccc2)CC1` [Example 5, 5-(dimethylamino)-2-[[4-(diphenylmethyl)-1-piperidinyl]methyl]-N-methylbenzamide], the “pA2 (Ca++ antagonism)” value in assay [2] (60 min, 1 µM) is on record as 7.25. In assay [1] (10 mpk-i.v.), the “SHR -mm Hg (dose), blood pressure change” value was -56 mm Hg.
With `CN(C)c1ccc(CN2CCC(C(c3ccccc3)c3ccccc3)CC2)c(C(=O)NC(C)(C)C)c1` [Example 6, 5-(dimethylamino)-N-(1,1-dimethylethyl)-2-[[4-(diphenylmethyl)-1-piperidinyl]methyl]benzamide], the “pA2 (Ca++ antagonism)” value in assay [2] (60 min, 1 µM) came to 7.20. Further, the “SHR activity (in words)” value in assay [1] (dose not given, active if mean post treatment blood pressure differs from control, p <= 0.05) is “inactive”.
Consider `COC(=O)c1cc(OC)ccc1CN1CCC(C(c2ccccc2)c2ccccc2)CC1` [Example 8, methyl 2-[[4-(diphenylmethyl)-1-piperidinyl]methyl]-5-methoxybenzoate], for which, in assay [1] (3-10 mpk-i.v.), the “SHR -mm Hg (dose), blood pressure change” value is given as -40 mm Hg.
For `CN(C)c1ccc(C[N+]2([O-])CCC(C(c3ccccc3)c3ccccc3)CC2)cc1` (centres unmarked) [Example 9], in assay [2], the “pA2 (Ca++ antagonism)” value is “inactive”. Besides, the “SHR -mm Hg (dose), blood pressure change” value in assay [1] (50 mpk-oral) is listed as -48 mm Hg.
With `COC(=O)c1cc(N(C)C)ccc1CN1CCC(C(c2ccccc2)c2ccccc2)CC1` [Example 11, methyl 5-(dimethylamino)-2-[[4-(diphenylmethyl)-1-piperidinyl]methyl]benzoate], the “pA2 (Ca++ antagonism)” value in assay [2] (60 min, 1 µM) worked out at 7.65. Moreover, in assay [1] (50 mpk-oral), the “SHR -mm Hg (dose), blood pressure change” value is listed as -34 mm Hg.
Take `COc1ccc(CCN(C)CCCC(C#N)(c2ccc(OC)c(OC)c2)C(C)C)cc1OC` (centres unmarked) [Verapamil, reference compound]: the “active in the foregoing test (vascular calcium antagonism)” value (“active … (vascular calcium antagonism)” for short) in assay [2] was “active”.
Turning to `COc1ccc([C@@H]2Sc3ccccc3N(CCN(C)C)C(=O)[C@@H]2OC(C)=O)cc1` [diltiazem, reference compound], the “active … (vascular calcium antagonism)” value in assay [2] is listed as “active”.
Consider `COC(=O)C1=C(C)NC(C)=C(C(=O)OC)C1c1ccccc1[N+](=O)[O-]` [nifedipine, reference compound], for which the “active … (vascular calcium antagonism)” value in assay [2] is on record as “active”.

The values above are taken from patent US4628095A, “Substituted N-benzyl-4-(benzhydryl) piperidines” (G. D. Searle & Co., priority 1985, dated 1986).
